Laboratory results as given in patent US12655120B2, “GPR52 modulator compounds” (NXERA PHARMA UK LIMITED, priority 2020, dated 2026).

Molecular target: T1, human GPR52 (Homo sapiens, UniProt Q9Y2T5)
T1 construct: expressed in transfected cells; host or cells: HEKf suspension cells infected with BacMam virus
Assay: GPR52 Agonist Functional cAMP Assay
Assay type: cell-based
Conditions: for EC50: HEKf cells infected with human GPR52 BacMam, HTRF cAMP, 30 min at 37° C., read-out: pEC50 average (converted); for Emax: normalised to DMSO (0%) and maximal compound 7m (J. Med. Chem., 2014, 57, 5226) response (100%)
Procedure: HEKf suspension cells were infected for 24 h with 0.1% v/v human GPR52 expressing BacMam virus, a modified baculovirus designed for mammalian gene expression. Following BacMam infection, cells were pelleted by centrifugation (335 g, 5 min), resuspended in cell freezing medium (Sigma) and frozen at −150° C. until required. On experiment day, 25 nL GPR52 compound dilutions, prepared in DMSO, were stamped onto proxiplates (PerkinElmer) by a LabCyte ECHO acoustic dispenser. Frozen cells were thawed and resuspended in assay stimulation buffer (Cisbio) containing 0.5 mM 3-iso-butyl-1-methylxanthine (IBMX, Sigma) to achieve a density of 2000 cells per well. 10 μl cells were added to assay plates using a Multidrop Combi Reagent Dispenser (ThermoFisher) before centrifugation (335 g, 1 min). Cells were incubated with compounds at 37° C. for 30 min prior to addition of cAMP detection reagents (HiRange cAMP kit, Cisbio) which were prepared according to the manufacturer's instructions. Plates were shaken for 1 h at room temperature before reading on a PHERAstar FS plate reader (BMG Labtech) using standard HTRF settings. HTRF ratios were obtained by dividing the acceptor emissions (665 nm) by the donor emissions (620 nm) and multiplying by 10,000.

T1 sequence (Q9Y2T5 whole entry): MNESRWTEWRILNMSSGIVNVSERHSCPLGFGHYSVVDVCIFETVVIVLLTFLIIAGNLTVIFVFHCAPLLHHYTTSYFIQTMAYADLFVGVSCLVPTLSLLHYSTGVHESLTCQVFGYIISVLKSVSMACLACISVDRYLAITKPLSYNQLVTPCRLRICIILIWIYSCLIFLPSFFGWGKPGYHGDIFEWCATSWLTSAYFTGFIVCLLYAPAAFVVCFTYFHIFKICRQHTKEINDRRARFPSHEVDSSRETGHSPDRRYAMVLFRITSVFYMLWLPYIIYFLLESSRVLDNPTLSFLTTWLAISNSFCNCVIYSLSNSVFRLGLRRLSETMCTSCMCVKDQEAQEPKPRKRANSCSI

| EC50 | Emax | Compound |
| --- | --- | --- |
| 126 nM | 90% | NC(=O)c1cnn(-c2cc(Cc3cc(F)cc(C(F)(F)F)c3)ccn2)c1 [Example 1, 1-(4-(3-fluoro-5-(trifluoromethyl)benzyl)pyridin-2-yl)-1H-pyrazole-4-carboxamide] |
| 501 nM | 90% | NC(=O)c1cnn(-c2ccnc(Cc3cc(F)cc(C(F)(F)F)c3)c2)c1 [Example 2, 1-(2-(3-fluoro-5-(trifluoromethyl)benzyl)pyridin-4-yl)-1H-pyrazole-4-carboxamide] |
| 316 nM | 86% | CNC(=O)c1cnn(-c2cc(Cc3cc(F)cc(C(F)(F)F)c3)ccn2)c1 [Example 3, 1-(4-(3-fluoro-5-(trifluoromethyl)benzyl)pyridin-2-yl)-N-methyl-1H-pyrazole-4-carboxamide] |
| 15.8 nM | 94% | Cc1nn(-c2cc(Cc3cc(F)cc(C(F)(F)F)c3)ccn2)cc1C(N)=O [Example 5, 1-(4-(3-fluoro-5-(trifluoromethyl)benzyl)pyridin-2-yl)-3-methyl-1H-pyrazole-4-carboxamide] |
| 12.6 nM | 97% | Cc1nn(-c2cc(Cc3cc(F)cc(C(F)(F)F)c3)ccn2)c(C)c1C(N)=O [Example 6, 1-(4-(3-fluoro-5-(trifluoromethyl)benzyl)pyridin-2-yl)-3,5-dimethyl-1H-pyrazole-4-carboxamide] |
| 126 nM | 93% | Cc1c(C(N)=O)cnn1-c1cc(Cc2cc(F)cc(C(F)(F)F)c2)ccn1 [Example 7, 1-(4-(3-fluoro-5-(trifluoromethyl)benzyl)pyridin-2-yl)-5-methyl-1H-pyrazole-4-carboxamide] |
| 100 nM | 85% | NC(=O)c1ccn(-c2cc(Cc3cc(F)cc(C(F)(F)F)c3)ccn2)n1 [Example 9, 1-(4-(3-fluoro-5-(trifluoromethyl)benzyl)pyridin-2-yl)-1H-pyrazole-3-carboxamide] |
| 79.4 nM | 83% | Cc1cn(-c2cc(Cc3cc(F)cc(C(F)(F)F)c3)ccn2)nc1C(N)=O [Example 10, 1-(4-(3-fluoro-5-(trifluoromethyl)benzyl)pyridin-2-yl)-4-methyl-1H-pyrazole-3-carboxamide] |
| 50.1 nM | 95% | Cc1nn(-c2ccnc(Cc3cc(F)cc(C(F)(F)F)c3)c2)nc1C(N)=O [Example 12, 2-(2-(3-fluoro-5-(trifluoromethyl)benzyl)pyridin-4-yl)-5-methyl-2H-1,2,3-triazole-4-carboxamide] |
| 15.8 nM | 99% | Cc1nn(-c2ccnc(Cc3cc(F)cc(C(F)(F)F)c3)c2)cc1C(=O)NC1COC1 [Example 19, 1-(2-(3-fluoro-5-(trifluoromethyl)benzyl)pyridin-4-yl)-3-methyl-N-(oxetan-3-yl)-1H-pyrazole-4-carboxamide] |
| 15.8 nM | 96% | NC(=O)c1cn(-c2ccnc(Cc3cc(F)cc(C(F)(F)F)c3)c2)nc1Cl [Example 22, 3-chloro-1-(2-(3-fluoro-5-(trifluoromethyl)benzyl)pyridin-4-yl)-1H-pyrazole-4-carboxamide] |
| 25.1 nM | 87% | NC(=O)c1cn(-c2ccnc(Cc3cc(F)cc(C(F)(F)F)c3)c2)nc1C(F)F [Example 23, 3-(difluoromethyl)-1-(2-(3-fluoro-5-(trifluoromethyl)benzyl)pyridin-4-yl)-1H-pyrazole-4-carboxamide] |
| 25.1 nM | 91% | NC(=O)c1cn(-c2ccnc(Cc3cc(F)cc(C(F)(F)F)c3)c2)nc1C(F)(F)F [Example 24, 1-(2-(3-fluoro-5-(trifluoromethyl)benzyl)pyridin-4-yl)-3-(trifluoromethyl)-1H-pyrazole-4-carboxamide] |
| 100 nM | 87% | N#Cc1nn(-c2ccnc(Cc3cc(F)cc(C(F)(F)F)c3)c2)cc1C(N)=O [Example 26, 3-cyano-1-(2-(3-fluoro-5-(trifluoromethyl)benzyl)pyridin-4-yl)-1H-pyrazole-4-carboxamide] |
| 31.6 nM | 95% | CNC(=O)c1cc(C)n(-c2cc(Cc3cc(F)cc(C(F)(F)F)c3)ccn2)n1 [Example 28, 1-(4-(3-fluoro-5-(trifluoromethyl)benzyl)pyridin-2-yl)-N,5-dimethyl-1H-pyrazole-3-carboxamide] |
| 200 nM | 75% | CN(C)C(=O)c1ccn(-c2cc(Cc3cc(F)cc(C(F)(F)F)c3)ccn2)n1 [Example 32, 1-(4-(3-fluoro-5-(trifluoromethyl)benzyl)pyridin-2-yl)-N,N-dimethyl-1H-pyrazole-3-carboxamide] |

Continued, compound first:

| Compound | EC50 | Emax |
| --- | --- | --- |
| NC(=O)c1cnn(-c2cc(Cc3cc(F)cc(C(F)(F)F)c3)ccn2)n1 [Example 4, 2-(4-(3-fluoro-5-(trifluoromethyl)benzyl)pyridin-2-yl)-2H-1,2,3-triazole-4-carboxamide] | 316 nM | 84% |
| Cc1nn(-c2ccnc(Cc3cc(F)cc(C(F)(F)F)c3)c2)cc1C(N)=O [Example 8, 1-(2-(3-fluoro-5-(trifluoromethyl)benzyl)pyridin-4-yl)-3-methyl-1H-pyrazole-4-carboxamide] | 20 nM | 96% |
| COc1nn(-c2ccnc(Cc3cc(F)cc(C(F)(F)F)c3)c2)cc1C(N)=O [Example 11, 1-(2-(3-fluoro-5-(trifluoromethyl)benzyl)pyridin-4-yl)-3-methoxy-1H-pyrazole-4-carboxamide] | 251 nM | 86% |
| Cc1nn(-c2cc(Cc3cc(F)cc(C(F)(F)F)c3)ccn2)nc1C(N)=O [Example 13, 2-(4-(3-fluoro-5-(trifluoromethyl)benzyl)pyridin-2-yl)-5-methyl-2H-1,2,3-triazole-4-carboxamide] | 39.8 nM | 93% |
| COc1nn(-c2cc(Cc3cc(F)cc(C(F)(F)F)c3)ccn2)cc1C(N)=O [Example 14, 1-(4-(3-fluoro-5-(trifluoromethyl)benzyl)pyridin-2-yl)-3-methoxy-1H-pyrazole-4-carboxamide] | 31.6 nM | 95% |
| Cc1cn(-c2cccc(Cc3cc(F)cc(C(F)(F)F)c3)n2)nc1C(N)=O [Example 15, 1-(6-(3-fluoro-5-(trifluoromethyl)benzyl)pyridin-2-yl)-4-methyl-1H-pyrazole-3-carboxamide] | 79.4 nM | 92% |
| Cc1nn(-c2ccnc(Cc3cc(F)cc(C(F)(F)F)c3)c2)cc1C(=O)N1CCCC1 [Example 16, (1-(2-(3-fluoro-5-(trifluoromethyl)benzyl)pyridin-4-yl)-3-methyl-1H-pyrazol-4-yl)(pyrrolidin-1-yl)methanone] | 31.6 nM | 93% |
| CNC(=O)c1cn(-c2ccnc(Cc3cc(F)cc(C(F)(F)F)c3)c2)nc1C [Example 17, 1-(2-(3-fluoro-5-(trifluoromethyl)benzyl)pyridin-4-yl)-N,3-dimethyl-1H-pyrazole-4-carboxamide] | 10 nM | 93% |
| Cc1nn(-c2ccnc(Cc3cc(F)cc(C(F)(F)F)c3)c2)cc1C(=O)N(C)C [Example 18, 1-(2-(3-fluoro-5-(trifluoromethyl)benzyl)pyridin-4-yl)-N,N,3-trimethyl-1H-pyrazole-4-carboxamide] | 79.4 nM | 92% |
| Cc1nn(-c2ccnc(Cc3cc(F)cc(C(F)(F)F)c3)c2)cc1C(=O)NCCO [Example 20, 1-(2-(3-fluoro-5-(trifluoromethyl)benzyl)pyridin-4-yl)-N-(2-hydroxyethyl)-3-methyl-1H-pyrazole-4-carboxamide] | 15.8 nM | 96% |
| COCCNC(=O)c1cn(-c2ccnc(Cc3cc(F)cc(C(F)(F)F)c3)c2)nc1C [Example 21, 1-(2-(3-fluoro-5-(trifluoromethyl)benzyl)pyridin-4-yl)-N-(2-methoxyethyl)-3-methyl-1H-pyrazole-4-carboxamide] | 39.8 nM | 96% |
| CCc1nn(-c2ccnc(Cc3cc(F)cc(C(F)(F)F)c3)c2)cc1C(N)=O [Example 25, 3-ethyl-1-(2-(3-fluoro-5-(trifluoromethyl)benzyl)pyridin-4-yl)-1H-pyrazole-4-carboxamide] | 10 nM | 99% |
| NC(=O)c1cn(-c2ccnc(Cc3cc(F)cc(C(F)(F)F)c3)c2)nc1C1CC1 [Example 27, 3-cyclopropyl-1-(2-(3-fluoro-5-(trifluoromethyl)benzyl)pyridin-4-yl)-1H-pyrazole-4-carboxamide] | 25.1 nM | 97% |
| NC(=O)c1ccn(-c2ccnc(Cc3cc(F)cc(C(F)(F)F)c3)c2)n1 [Example 29, 1-(2-(3-fluoro-5-(trifluoromethyl)benzyl)pyridin-4-yl)-1H-pyrazole-3-carboxamide] | 1260 nM | 86% |
| Cc1cc(C(N)=O)nn1-c1cc(Cc2cc(F)cc(C(F)(F)F)c2)ccn1 [Example 30, 1-(4-(3-fluoro-5-(trifluoromethyl)benzyl)pyridin-2-yl)-5-methyl-1H-pyrazole-3-carboxamide] | 158 nM | 93% |
| CNC(=O)c1ccn(-c2cc(Cc3cc(F)cc(C(F)(F)F)c3)ccn2)n1 [Example 31, 1-(4-(3-fluoro-5-(trifluoromethyl)benzyl)pyridin-2-yl)-N-methyl-1H-pyrazole-3-carboxamide] | 20 nM | 87% |
